Results taken from US20090314217A1, “APPARATUS AND METHOD FOR TREATING NON-HUMAN MAMMALS” (Under The Boardwalk Properties 8 (Proprietary) Limited, priority 2006, published 2009).

Assays:
[1] = Blood tests on the horses on the days of the race (Table 1); type: in vivo, horse
Method: The apparatus 10 was used in a confidential trial to treat five horses taking part in an endurance race. The five horses were called Moniq, Shamon, Pauli, Viola and Ophelia. During treatment, the average temperature inside the enclosure 22 was between 42° C. and 45° C. and an oxygen flow rate of 1 l/min was supplied to the ozonator 52. During treatment, the average heart-rate for the non-accustomed horses was 42 beats per minute. The superficial skin temperature measured on the neck and the point of the shoulder of the horses was 39° C. in each case.
Table 1 provides information on the blood tests conducted on the five horses, on the days of the race as indicated.

[2] = Haematocrit in horses with billiary treated in apparatus 10; type: in vivo, horse; conditions: after two treatment sessions, increased from 31
[3] = horse Moniq, race day 2, treated days 1 and 2, day 1 value 4.4
[4] = horse Moniq, race day 3, treated days 1 and 2, day 1 value 4.4
[5] = horse Pauli, race day 2, pre-treated before race
[6] = horse Shamon, race day 3, treated day 2
[7] = horse Viola, race day 2, treated days 1 and 2, day 1 value 40

## O=[O+][O-] [ozone]
[1]; horse Moniq, race day 2, treated days 1 and 2, day 1 value 0.04
  PCT: 0.07%
[1]; horse Moniq, race day 2, treated days 1 and 2, day 1 value 0.57
  MON = monocytes: 6e+07 L⁻¹
[1]; horse Moniq, race day 2, treated days 1 and 2, day 1 value 1.80
  LYM = lymphocytes: 1.96e+09 L⁻¹
[1]; horse Moniq, race day 2, treated days 1 and 2, day 1 value 2.98
  CA++ = calcium: 2.98 mmol/L
[1]; [3]
  K+ = potassium: 4.3 mmol/L
  MON % = monocytes percentage: 0.6%
[1]; horse Moniq, race day 2, treated days 1 and 2, day 1 value 4.7
  GLU = glucose: 6.1 mmol/L
[1]; horse Moniq, race day 2, treated days 1 and 2, day 1 value 8
  BUN = blood urea nitrogen: 9 mmol/L
[1]; horse Moniq, race day 2, treated days 1 and 2, day 1 value 10.2
  RBC = red blood cell count: 9.21e+12 L⁻¹
[1]; horse Moniq, race day 2, treated days 1 and 2, day 1 value 10.5
  GRA = granulocytes: 7.55e+09 L⁻¹
[1]; horse Moniq, race day 2, treated days 1 and 2, day 1 value 12
  GGT = gamma glutamiel transferase: 11 Units/liter
[1]; horse Moniq, race day 2, treated days 1 and 2, day 1 value 12.8
  WBC = white blood cell count: 9.56e+09 L⁻¹
[1]; horse Moniq, race day 2, treated days 1 and 2, day 1 value 14.0
  LY % = lymphocytes percentage: 20.5%
[1]; horse Moniq, race day 2, treated days 1 and 2, day 1 value 15.1
  MCH = mean corpuscular hemoglobin: 14.7 pg
[1]; horse Moniq, race day 2, treated days 1 and 2, day 1 value 15.5
  HB = hemoglobin: 13.6 d/deciliter
[1]; horse Moniq, race day 2, treated days 1 and 2, day 1 value 22.5
  RDWc: 22.2%
[1]; horse Moniq, race day 2, treated days 1 and 2, day 1 value 32.6
  PDW: 37.2
[1]; horse Moniq, race day 2, treated days 1 and 2, day 1 value 36
  ALB = albumin: 34 gram/liter
[1]; horse Moniq, race day 2, treated days 1 and 2, day 1 value 37
  TBIL = total biliruben: 58 µmol/L
[1]; horse Moniq, race day 2, treated days 1 and 2, day 1 value 38
  MCV = mean corpuscular volume: 37 femtoliter
[1]; horse Moniq, race day 2, treated days 1 and 2, day 1 value 40.0
  MCHC = mean corpuscular hemoglobin concentration: 39.6 gram/deciliter
[1]; horse Moniq, race day 2, treated days 1 and 2, day 1 value 43
  GLOB = globulin: 40 gram/liter
[1]; horse Moniq, race day 2, treated days 1 and 2, day 1 value 79
  TP = total protein: 75 gram/liter
[1]; horse Moniq, race day 2, treated days 1 and 2, day 1 value 81.6
  GR % = granulocytes percentage: 78.9%
[1]; horse Moniq, race day 2, treated days 1 and 2, day 1 value 83
  PLT = platelets: 1.24e+11 L⁻¹
[1]; horse Moniq, race day 2, treated days 1 and 2, day 1 value 96
  CRE = creatinine: 106 µmol/L
[1]; horse Moniq, race day 2, treated days 1 and 2, day 1 value 139
  Na+ = sodium: 137 mmol/L
[1]; horse Moniq, race day 2, treated days 1 and 2, day 1 value 468
  AST = aspertate amino transferase: 564 Units/liter
[1]; horse Moniq, race day 2, treated days 1 and 2, day 1 value 3873
  CK = creatine kinase: 706 International Units/liter
[1]; horse Moniq, race day 3, treated days 1 and 2, day 1 value 0.04
  PCT: 0.07%
[1]; horse Moniq, race day 3, treated days 1 and 2, day 1 value 0.57
  MON = monocytes: 6e+07 L⁻¹
[1]; horse Moniq, race day 3, treated days 1 and 2, day 1 value 1.80
  LYM = lymphocytes: 1.06e+09 L⁻¹
[1]; horse Moniq, race day 3, treated days 1 and 2, day 1 value 2.98
  CA++ = calcium: 2.98 mmol/L
[1]; [4]
  K+ = potassium: 4.3 mmol/L
  MON % = monocytes percentage: 0.6%
[1]; horse Moniq, race day 3, treated days 1 and 2, day 1 value 4.7
  GLU = glucose: 6.1 mmol/L
[1]; horse Moniq, race day 3, treated days 1 and 2, day 1 value 8
  BUN = blood urea nitrogen: 9 mmol/L
[1]; horse Moniq, race day 3, treated days 1 and 2, day 1 value 10.2
  RBC = red blood cell count: 9.21e+12 L⁻¹
[1]; horse Moniq, race day 3, treated days 1 and 2, day 1 value 10.5
  GRA = granulocytes: 7.55e+09 L⁻¹
[1]; horse Moniq, race day 3, treated days 1 and 2, day 1 value 12
  GGT = gamma glutamiel transferase: 11 Units/liter
[1]; horse Moniq, race day 3, treated days 1 and 2, day 1 value 12.8
  WBC = white blood cell count: 9.56e+09 L⁻¹
[1]; horse Moniq, race day 3, treated days 1 and 2, day 1 value 14.0
  LY % = lymphocytes percentage: 20.5%
[1]; horse Moniq, race day 3, treated days 1 and 2, day 1 value 15.1
  MCH = mean corpuscular hemoglobin: 14.7 pg
[1]; horse Moniq, race day 3, treated days 1 and 2, day 1 value 15.5
  HB = hemoglobin: 17.0 d/deciliter
[1]; horse Moniq, race day 3, treated days 1 and 2, day 1 value 22.5
  RDWc: 22.2%
[1]; horse Moniq, race day 3, treated days 1 and 2, day 1 value 32.6
  PDW: 37.2
[1]; horse Moniq, race day 3, treated days 1 and 2, day 1 value 36
  ALB = albumin: 34 gram/liter
[1]; horse Moniq, race day 3, treated days 1 and 2, day 1 value 37
  TBIL = total biliruben: 58 µmol/L
[1]; horse Moniq, race day 3, treated days 1 and 2, day 1 value 38
  MCV = mean corpuscular volume: 37 femtoliter
[1]; horse Moniq, race day 3, treated days 1 and 2, day 1 value 40.0
  MCHC = mean corpuscular hemoglobin concentration: 39.6 gram/deciliter
[1]; horse Moniq, race day 3, treated days 1 and 2, day 1 value 43
  GLOB = globulin: 40 gram/liter
[1]; horse Moniq, race day 3, treated days 1 and 2, day 1 value 79
  TP = total protein: 75 gram/liter
[1]; horse Moniq, race day 3, treated days 1 and 2, day 1 value 81.6
  GR % = granulocytes percentage: 78.8%
[1]; horse Moniq, race day 3, treated days 1 and 2, day 1 value 83
  PLT = platelets: 1.27e+11 L⁻¹
[1]; horse Moniq, race day 3, treated days 1 and 2, day 1 value 96
  CRE = creatinine: 106 µmol/L
[1]; horse Moniq, race day 3, treated days 1 and 2, day 1 value 139
  Na+ = sodium: 137 mmol/L
[1]; horse Moniq, race day 3, treated days 1 and 2, day 1 value 468
  AST = aspertate amino transferase: 564 Units/liter
[1]; horse Moniq, race day 3, treated days 1 and 2, day 1 value 3873
  CK = creatine kinase: 706 International Units/liter
[1]; [5]
  ALB = albumin: 32 gram/liter
  AST = aspertate amino transferase: 379 Units/liter
  BUN = blood urea nitrogen: 9 mmol/L
  CA++ = calcium: 3.13 mmol/L
  CK = creatine kinase: 1378 International Units/liter
  CRE = creatinine: 129 µmol/L
  GGT = gamma glutamiel transferase: 19 Units/liter
  GLOB = globulin: 47 gram/liter
  GLU = glucose: *6.9 mmol/liter
  GR % = granulocytes percentage: 88.0%
  GRA = granulocytes: 1.76e+10 L⁻¹
  HB = hemoglobin: 16.6 d/deciliter
  K+ = potassium: 5.1 mmol/L
  LY % = lymphocytes percentage: 7.0%
  LYM = lymphocytes: 1.39e+09 L⁻¹
  MCH = mean corpuscular hemoglobin: 15.8 pg
  MCHC = mean corpuscular hemoglobin concentration: 38.8 gram/deciliter
  MCV = mean corpuscular volume: 41 femtoliter
  MON % = monocytes percentage: 4.0%
  MON = monocytes: 8e+08 L⁻¹
  Na+ = sodium: 143 mmol/L
  PCT: 0.05%
  PDW: 33.8
  PLT = platelets: 1.1e+11 L⁻¹
  RBC = red blood cell count: 1.05e+13 L⁻¹
  RDWc: 21.9%
  TBIL = total biliruben: 96 µmol/L
  TP = total protein: 79 gram/liter
  WBC = white blood cell count: 1.98e+10 L⁻¹
[1]; [6]
  ALB = albumin: 31 gram/liter
  AST = aspertate amino transferase: 722 Units/liter
  BUN = blood urea nitrogen: 9 mmol/L
  CA++ = calcium: 2.76 mmol/L
  CK = creatine kinase: 1450 International Units/liter
  CRE = creatinine: 122 µmol/L
  GGT = gamma glutamiel transferase: 27 Units/liter
  GLOB = globulin: 35 gram/liter
  GLU = glucose: 6.3 mmol/L
  GR % = granulocytes percentage: 78.4%
  GRA = granulocytes: 1.24e+10 L⁻¹
  HB = hemoglobin: 11.9 d/deciliter
  K+ = potassium: 3.8 mmol/L
  LY % = lymphocytes percentage: 16.4%
  LYM = lymphocytes: 2.59e+09 L⁻¹
  MCH = mean corpuscular hemoglobin: 15.8 pg
  MCHC = mean corpuscular hemoglobin concentration: 39.3 gram/deciliter
  MCV = mean corpuscular volume: 40 femtoliter
  MON % = monocytes percentage: 5.2%
  MON = monocytes: 8.2e+08 L⁻¹
  Na+ = sodium: 138 mmol/L
  PCT: 0.06%
  PDW: 35.8
  PLT = platelets: 1.02e+11 L⁻¹
  RBC = red blood cell count: 7.56e+12 L⁻¹
  RDWc: 22.1%
  TBIL = total biliruben: 52 µmol/L
  TP = total protein: 66 gram/liter
  WBC = white blood cell count: 1.58e+10 L⁻¹
[1]; horse Viola, race day 2, treated days 1 and 2, day 1 value 0.09
  PCT: 0.05%
[1]; horse Viola, race day 2, treated days 1 and 2, day 1 value 0.64
  MON = monocytes: 5.6e+08 L⁻¹
[1]; horse Viola, race day 2, treated days 1 and 2, day 1 value 1.34
  LYM = lymphocytes: 2.14e+09 L⁻¹
[1]; horse Viola, race day 2, treated days 1 and 2, day 1 value 2.9
  GLU = glucose: 5.7 mmol/L
[1]; horse Viola, race day 2, treated days 1 and 2, day 1 value 2.97
  CA++ = calcium: 2.88 mmol/L
[1]; horse Viola, race day 2, treated days 1 and 2, day 1 value 4.3
  MON % = monocytes percentage: 4.3%
[1]; horse Viola, race day 2, treated days 1 and 2, day 1 value 5.1
  K+ = potassium: 3.7 mmol/L
[1]; horse Viola, race day 2, treated days 1 and 2, day 1 value 8.9
  LY % = lymphocytes percentage: 16.3%
[1]; horse Viola, race day 2, treated days 1 and 2, day 1 value 9
  BUN = blood urea nitrogen: 9 mmol/L
[1]; horse Viola, race day 2, treated days 1 and 2, day 1 value 9.73
  RBC = red blood cell count: 9.03e+12 L⁻¹
[1]; horse Viola, race day 2, treated days 1 and 2, day 1 value 13.0
  GRA = granulocytes: 1.04e+10 L⁻¹
[1]; horse Viola, race day 2, treated days 1 and 2, day 1 value 15.0
  WBC = white blood cell count: 1.31e+10 L⁻¹
[1]; horse Viola, race day 2, treated days 1 and 2, day 1 value 15.2
  HB = hemoglobin: 14.4 d/deciliter
[1]; horse Viola, race day 2, treated days 1 and 2, day 1 value 15.7
  MCH = mean corpuscular hemoglobin: 16.0 pg
[1]; horse Viola, race day 2, treated days 1 and 2, day 1 value 17
  GGT = gamma glutamiel transferase: 18 Units/liter
[1]; horse Viola, race day 2, treated days 1 and 2, day 1 value 22.4
  RDWc: 22.6%
[1]; horse Viola, race day 2, treated days 1 and 2, day 1 value 34
  ALB = albumin: 30 gram/liter
[1]; horse Viola, race day 2, treated days 1 and 2, day 1 value 35.8
  PDW: 31.0
[1]; horse Viola, race day 2, treated days 1 and 2, day 1 value 39.4
  MCHC = mean corpuscular hemoglobin concentration: 39.0 gram/deciliter
[1]; [7]
  GLOB = globulin: 39 gram/liter
  MCV = mean corpuscular volume: 41 femtoliter
[1]; horse Viola, race day 2, treated days 1 and 2, day 1 value 41
  TBIL = total biliruben: 48 µmol/L
[1]; horse Viola, race day 2, treated days 1 and 2, day 1 value 75
  TP = total protein: 69 gram/liter
[1]; horse Viola, race day 2, treated days 1 and 2, day 1 value 86.8
  GR % = granulocytes percentage: 79.4%
[1]; horse Viola, race day 2, treated days 1 and 2, day 1 value 131
  CRE = creatinine: 99 µmol/L
[1]; horse Viola, race day 2, treated days 1 and 2, day 1 value 144
  Na+ = sodium: 138 mmol/L
[1]; horse Viola, race day 2, treated days 1 and 2, day 1 value 146
  PLT = platelets: 9.9e+10 L⁻¹
[1]; horse Viola, race day 2, treated days 1 and 2, day 1 value 5896
  CK = creatine kinase: 1599 International Units/liter
[1]; horse Viola, race day 2, treated days 1 and 2, day 1 value >2000
  AST = aspertate amino transferase: 1814 Units/liter
[2]
  haematocrit: 38%
